Measured values from US20090053187A1 (priority 2005, published 2009).
Values joined by “and” are separate entries in the source; they are usually repeats but may differ in a detail not shown here. Equal values may be shown once.

Assays:
[1] = test system: Bacillus anthracis 71/12 (Tsenkovsky vaccine II); parameters: species or system outbred white mice; settings: mouse, in vivo
Bacillus anthracis STI-1 = test system: Bacillus anthracis STI-1; parameters: species or system Mice of CBA line; settings: mouse, in vivo
STI-1 = format: cell-based
STI-PRTS = format: cell-based

## lyzozyme
[1]
  Death of animal on day 2: 1
  Death of animal on day 3: 3
  Death of animal on day 6: 0
  Death of animal on day 7: 0
  Number of perished/Number of infected: 4/5
  mortality: 80%

## C[C@H]1c2cccc(O)c2C(=O)C2=C(O)[C@]3(O)C(=O)C(C(N)=O)=C(O)[C@@H](N(C)C)[C@@H]3[C@@H](O)[C@@H]21 [doxycycline]
Bacillus anthracis STI-1
  Death of animals among those taken for the experiment: 3/3 and 1/3 and 0/3

## tetracycline [Tc]
STI-1
  Zone of culture growth delay at using discs with antibiotics: 7 mm
STI-PRTS
  Zone of culture growth delay at using discs with antibiotics: 0 mm

## ampicillin
STI-1
  Zone of culture growth delay at using discs with antibiotics: 4 mm
STI-PRTS
  Zone of culture growth delay at using discs with antibiotics: 0 mm
